Reference: publication PMC4728427, “Mechanism of allosteric activation of TMEM16A/ANO1 channels by a commonly used chloride channel blocker” (British Journal of Pharmacology, 2016)

Tests used:
[1] = target: T1, Mouse TMEM16A (Mus musculus, UniProt Q8BHY3); assay: Non-stationary noise analysis of whole-cell TMEM16A tail currents; type: cell-based; details: −70 mV tail pulse, 300 nM [Ca2+]i; for P o: control 0.09 ± 0.02; for single channel current i: control 0.22 ± 0.01
T1 construct: expressed in transfected cells; host or cells: HEK-293T
T1 sequence (Q8BHY3 1-960): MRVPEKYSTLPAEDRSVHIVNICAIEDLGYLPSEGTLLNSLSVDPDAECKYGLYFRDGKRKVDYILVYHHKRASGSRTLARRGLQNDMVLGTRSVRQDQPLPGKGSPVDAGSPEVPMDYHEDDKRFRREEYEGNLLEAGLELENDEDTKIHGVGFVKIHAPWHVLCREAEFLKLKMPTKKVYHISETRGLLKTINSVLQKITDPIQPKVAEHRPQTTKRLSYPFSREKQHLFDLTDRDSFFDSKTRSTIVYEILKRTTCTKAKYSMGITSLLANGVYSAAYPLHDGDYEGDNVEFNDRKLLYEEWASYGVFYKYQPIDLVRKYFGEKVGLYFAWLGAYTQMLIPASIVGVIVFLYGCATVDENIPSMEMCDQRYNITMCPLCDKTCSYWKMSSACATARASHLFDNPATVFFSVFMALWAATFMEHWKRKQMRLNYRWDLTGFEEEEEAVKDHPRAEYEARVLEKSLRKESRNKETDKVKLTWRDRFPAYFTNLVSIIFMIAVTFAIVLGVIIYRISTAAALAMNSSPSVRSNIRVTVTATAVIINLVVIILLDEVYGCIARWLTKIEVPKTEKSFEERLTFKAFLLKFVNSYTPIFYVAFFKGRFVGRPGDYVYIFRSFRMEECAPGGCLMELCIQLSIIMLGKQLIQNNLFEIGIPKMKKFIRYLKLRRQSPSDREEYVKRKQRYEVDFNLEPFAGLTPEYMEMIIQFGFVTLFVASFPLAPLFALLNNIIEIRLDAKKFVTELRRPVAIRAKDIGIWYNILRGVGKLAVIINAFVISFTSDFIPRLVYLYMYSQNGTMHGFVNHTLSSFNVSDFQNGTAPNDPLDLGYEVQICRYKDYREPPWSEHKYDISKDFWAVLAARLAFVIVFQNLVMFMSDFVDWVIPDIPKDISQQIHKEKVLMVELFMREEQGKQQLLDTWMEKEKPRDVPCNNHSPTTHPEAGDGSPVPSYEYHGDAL
Protocol: For non‐stationary noise analysis (Heinemann and Conti, 1992; Tammaro and Ashcroft, 2007), 80–200 identical pulses to a test potential of −70 mV (filtered at 10 kHz and sampled at 50 kHz) were applied, and the mean response, I, was calculated. The variance, σ ^2, was computed from the average squared difference of consecutive traces. Background variance and current at 0 mV were subtracted, and the variance–mean plot was fit by (4) σ^2=iI−I^2/N,
with the single channel current, i, and the number of channels, N, as free parameters.
Non‐stationary noise analysis was performed in the presence of 300 nM [Ca^2+]i during a tail pulse to −70 mV (Figure 8). In the absence of A9C, the i of TMEM16A was 0.22 ± 0.01 pA (n = 9). In the presence of 100 and 1000 μM [A9C]ext, i was 0.22 ± 0.01 pA (n = 9) and 0.23 ± 0.02 pA (n = 9) respectively. […] In the absence of A9C, the P o of TMEM16A was 0.09 ± 0.02 (n = 9) while in the presence of 100 and 1000 μM [A9C]ext, the P o was 0.41 ± 0.06 (n = 9) and 0.62 ± 0.06 (n = 9) respectively. Thus, extracellular A9C increased TMEM16A channel P o at a fixed V m and [Ca^2+]i.

[2] = target: T1, Mouse TMEM16A; assay: Whole-cell TMEM16A current in the absence of [Ca2+]i; type: cell-based; details: 3000 μM extracellular A9C
Protocol: Current versus V m relationships were constructed by measuring currents in response to 1 s V m steps (test pulses) from −100 to +100 mV in 40 mV increments (unless stated otherwise) after a 1 s V m step to +70 mV (pre‐pulse). Pulses were elicited every 2 s from a holding V m of 0 mV. Steady‐state currents were measured at the end of the test pulses. As detailed in the Results, in the presence of 300 nM [Ca^2+]i and extracellular A9C, the test‐pulse currents reached a peak within the first ~50 ms of the test pulse. These peak currents were also measured and plotted against the V m of the test pulse. Current density was obtained by dividing the current amplitude for the cell capacitance.
The gating of TMEM16A channels is modulated by changes in [Ca^2+]i and V m. To study the effect of A9C on the intrinsic V m‐dependence of the channel, extracellular A9C (3000 μM) was applied during whole‐cell patch‐clamp in the absence of [Ca^2+]i (Figure 9). The stimulation protocol was similar to that used in Figure 1. However, because TMEM16A current in the absence of [Ca^2+]i are evident at V m greater than ~100 mV (Xiao et al., 2011), test pulses were elicited up to a value of +140 mV. Consistent with previous studies (Xiao et al., 2011), TMEM16A current in the absence of [Ca^2+]i appeared almost instantaneously in response to strong depolarizations (Figure 9). […]

Question: Which P o ([1]; 100 μM [A9C]ext) does the source give for O=C(O)c1c2ccccc2cc2ccccc12 [A9C, Anthracene‐9‐carboxylic acid] here?
Answer: 0.41 ± 0.06

Question: And the “single channel current i” value ([1]; 100 μM [A9C]ext)?
Answer: 0.22 ± 0.01 pA

Question: And the P o ([1]; 1000 μM [A9C]ext)?
Answer: 0.62 ± 0.06

Question: What about the “single channel current i” value ([1]; 1000 μM [A9C]ext) of the same compound?
Answer: 0.23 ± 0.02 pA

Question: What about the “tail currents at negative Vm” value [2] of the same compound?
Answer: no large increase

Question: What about the TMEM16A current density ([2]; +140 mV, control 13.0 ± 4.0) of the same compound?
Answer: 7.3 ± 3.8 pA∙pF^−1
